Here are results for nine molecules from article PMC11487760, “Cross-Species Applications of Peptide Substrate Reporters to Quantitative Measurements of Kinase Activity” (ACS Measurement Science Au, 2024).

The nature of data set [1]: Degradation assay in freeze-thaw lysates, T. thermophila B2086.2. Format: in vitro ADME. The settings on record: freeze–thaw lysate of vegetative T. thermophila B2086.2 cells, 3 mg/mL total protein in PBS, no protease inhibitors, 10 μM reporter, 25 °C, CE-LIF, first-order fit, ± SD, 3 biological replicates. On the procedure: (§1) Degradation assays were conducted as described previously.[38] Briefly, aliquots of vegetative cells were washed twice, resuspended in ice-cold phosphate buffered saline at a density of 2 × 10^8 cells/mL and lysed by three freeze–thaw cycles using liquid nitrogen. The resulting lysate was clarified by 5 min centrifugation at 15,000 × g, and the supernatant was stored at −80 °C. The total protein concentration was determined using a fluorescamine assay with a bovine serum albumin (BSA) calibration curve.[39] Briefly, three parts diluted lysate (or BSA standard) in 30 mM borate buffer (pH 9) and one part 3 mg/mL fluorescamine in acetone were incubated for 5 min in the dark at room temperature. The fluorescence at 475 nm was then measured using 390 nm excitation. Based on this assay, the lysate was diluted to a concentration of 3 mg/mL in phosphate buffered saline. The degradation reaction was run at 25 °C and initiated by addition of 10 μM reporter to the diluted lysate. At fixed time points, aliquots were removed, and the reaction was stopped by incubation for 4 min at 95 °C.
(§2) To study degradation kinetics, we fit the data for each full-length peptide to a first-order reaction model and determined the half-life for each peptide for three biological replicates (Figure 5b-d, Table 3). Degradation rates and half-lives varied widely between organisms and peptides; however, some general trends were apparent. For all peptides, degradation was much faster in T. thermophila than in D. discoideum. T. thermophila is known to produce and secrete cysteine proteases and is a large ([…]), fast-growing cell. […] Further characterization of protease expression in these strains may be helpful identifying the enzyme(s) primarily responsible for degradation of these reporters.

The nature of data set [2]: Degradation assay in freeze-thaw lysates, D. discoideum. It is filed as in vitro ADME. The settings on record: 10 μM reporter, 25 °C, CE-LIF. On the procedure: as §1, §2
In data set [3] the test system is PKBA. Put plainly: Phosphorylation of peptide substrate reporters in D. discoideum lysates (CE-LIF). It is filed as biochemical. Conditions: lysates from chemotaxis-competent D. discoideum 20–30 s after 1 μM cAMP stimulation; 5 μM reporter, 2 mM ATP, 0.4–0.6 mg/mL protein, room temperature, lysis buffer with phosphatase and protease inhibitors; reactions with ≤10% total phosphorylation; MEKC CE-LIF. An excerpt: (§3) In addition to confirming that all three reporters were phosphorylated in lysates from both cell types, we also characterized the kinetics of the phosphorylation, which varied substantially between organisms. Using reactions with ≤10% total phosphorylation, we determined the phosphorylation rate for lysates from stimulated cells in units of zeptomoles of phosphorylated product per picogram of total protein per second (zmol pg^–1 s^–1; Table 2). […] For D. discoideum, B-5/I was the next most preferred substrate. This kinetic trend is similar to that observed in human cells. Crosstide and a truncated version of B-5/I have similar values for Vmax with human Akt1, but the KM value is about 5-fold lower for Crosstide.[25] The value of Vmax has not been determined for VI–B with Akt1, but its phosphorylation rate is known to be slower than that of B-5/I.[13]

The subject of data set [4] is PHK5. Description: Phosphorylation of peptide substrate reporters in T. thermophila lysates (CE-LIF). Format: biochemical. The settings on record: lysates from T. thermophila 2 h into conjugation, 20–30 s after 2% proteose peptone; 5 μM reporter, 2 mM ATP, room temperature, lysis buffer with phosphatase and protease inhibitors; reactions with ≤10% total phosphorylation; MEKC CE-LIF. As for the experimental part:
For T. thermophila lysates, mating was induced by mixing equal cell numbers of B2086.2 and CU428.2 strains that had been starved for 16 h at 30 °C in unshaken Dryl’s buffer (2 mM phosphate buffer, 2 mM citrate, 1.5 mM CaCl2). Two hours after cells were mixed, microscopy was used to confirm that >75% of cells were paired. Samples were then lysed with an equal volume of ice-cold 2× lysis buffer, before and 30 s after addition of 20% proteose peptone stock to a final concentration of 2% or other stimuli as noted.
as §3

A short description of data set [5]: Degradation assay in freeze-thaw lysates, T. thermophila CU428.2. Conditions: T. thermophila strain CU428.2 freeze–thaw lysate, based on the first 5 min of each reaction; 3 mg/mL protein, 10 μM reporter, 25 °C, CE-LIF. It is filed as in vitro ADME. On the procedure:
as §1
To study degradation kinetics, we fit the data for each full-length peptide to a first-order reaction model and determined the half-life for each peptide for three biological replicates (Figure 5b-d, Table 3). […]

For data set [6], the system named is pancreatic cancer cell lines. Conditions: intact pancreatic cancer cell lines; cited from earlier work. As for the experimental part: (§4) These rates are much higher than rates obtained in intact human prostate cancer cells (LNCaP, 0.04 zmol pg^–1 s^–1)[6] and pancreatic cancer cell lines (0.02–0.1 zmol pg^–1 s^–1)[28],[50] with the same reporter. Our assays were conducted in lysates containing phosphatase inhibitors, which will increase the apparent activity of PKB by removing the effects of any opposing phosphatases. Additionally, higher phosphorylation rates may arise from differing expression levels of PKB ...

Data set [7] has as its system intact human prostate cancer cells (LNCaP). The settings on record: cited from earlier work. On the procedure:
as §4

For data set [8], the system named is PHK5. It is filed as cell-based. Conditions: mating T. thermophila treated 20 s with 1 μM stimulus (2% for proteose peptone) prior to lysis; 15 min incubation of Crosstide in lysate; n = 2–3 biological replicates. As for the experimental part:
For T. thermophila lysates, mating was induced by mixing equal cell numbers of B2086.2 and CU428.2 strains that had been starved for 16 h at 30 °C in unshaken Dryl’s buffer (2 mM phosphate buffer, 2 mM citrate, 1.5 mM CaCl2). […] Samples were then lysed with an equal volume of ice-cold 2× lysis buffer, before and 30 s after addition of 20% proteose peptone stock to a final concentration of 2% or other stimuli as noted.
The protein concentrations of lysates were determined using the fluorescamine assay described above, and lysates were diluted to the same final concentration (0.4–0.6 mg/mL) in 1× lysis buffer. […] Phosphorylation reactions were conducted in kinase buffer (25 mM MOPS, pH 7.4, 20 mM magnesium chloride, 25 mM glycerophosphate, 1 mM DTT).[41] The peptide substrate reporter was added to a final concentration of 5 μM, and the reaction was started by addition of a final concentration of 2 mM ATP. The reaction was run at room temperature and stopped by the addition of CE run buffer. Negative control experiments were performed by substituting deionized water for ATP or denaturing the lysate with heat before the addition of peptide.
Samples were analyzed using micellar electrokinetic chromatography (MEKC) in a PA-800 Plus capillary electrophoresis instrument (Beckman Coulter). […] The same buffer was used for phosphorylation assays of Crosstide. […] For all VI–B assays, the run buffer was 100 mM borate, 15 mM SDS, pH 11.4. The capillary was 50 μm diameter bare silica, 21 cm effective length with an applied potential of 400 V/cm. […] Peak integration was performed using 32 Karat (v. 10.1) software.
Cells were treated with a final concentration of 1 μM stimulus for 20 s prior to lysis.

The subject of data set [9] is PKBA. Put plainly: Effect of LY294002 treatment on reporter phosphorylation in cAMP-stimulated D. discoideum. It is filed as cell-based. The settings on record: 15 μM LY294002 for 1 min before cAMP stimulation; lysed 15 s after stimulation; 1 h social development; all three reporters; n = 3 biological replicates. On the procedure:
(§5) Next, we tested pharmacological treatment of D. discoideum. We treated cells for 1 min with 15 μM LY294002, a PI3K inhibitor. LY294002 has been shown previously to reduce PKBA activity in D. discoideum.[53],[55]−[57] […] The magnitude of this effect was quite similar for all three peptides; percent phosphorylation of cAMP-stimulated cells decreased to 33–34% of the untreated phosphorylation levels upon LY294002 treatment.

Data set [10] deals with PKBA. The settings on record: read-out: EC50 for PKBA in D. discoideum; cited from earlier work. As for the experimental part:
as §5

[11] abbreviates: freeze–thaw lysate of vegetative D. discoideum cells, 3 mg/mL total protein in PBS, no protease inhibitors, first-order fit, ± SD, 3 biological replicates.

Non-standard residues stand in square brackets, D forms with d. Residues, ends and D or L forms follow the SMILES beside them. *: point of attachment. 5FAM = O=C1OC2(c3ccc(O)cc3Oc3cc(O)ccc32)c2ccc(C(=O)*)cc21; 6FAM = O=C1OC2(c3ccc(O)cc3Oc3cc(O)ccc32)c2cc(C(=O)*)ccc21; NMeR = CN[C@@H](CCCNC(=N)N)C(=O)O; NMeA = CN[C@@H](C)C(=O)O

A word on the half-life: it is the time needed for the level to fall by half in the phase considered. Low values mean fast loss, high ones slow loss. `C[C@H](NC(=O)[C@H](C)NC(=O)[C@H](CCCNC(=N)N)NC(=O)[C@@H]1CCCN1C(=O)[C@H](CCCNC(=N)N)NC(=O)CNC(=O)c1ccc2c(c1)C1(OC2=O)c2ccc(O)cc2Oc2cc(O)ccc21)C(=O)N[C@H](C(=O)N[C@@H](Cc1ccccc1)C(=O)N[C@@H](C)C(=O)N[C@@H](CCC(=O)O)C(=O)NCC(N)=O)[C@@H](C)O` [B-5/I] (6FAM-GRPRAATFAEG-NH2): the half-life at 10 μM in data set [1] is 12 ± 4 min; in [2] (setting [11]), 51 ± 4 min.

As to `C[C@H](NC(=O)[C@H](CCCNC(=N)N)N(C)C(=O)[C@@H]1CCCN1C(=O)[C@H](CCCNC(=N)N)NC(=O)CNC(=O)c1ccc2c(c1)C1(OC2=O)c2ccc(O)cc2Oc2cc(O)ccc21)C(=O)N[C@@H](Cc1ccccc1)C(=O)N[C@H](C(=O)N[C@@H](Cc1ccccc1)C(=O)N(C)[C@@H](C)C(N)=O)[C@@H](C)O` [VI–B] (6FAM-GRP[NMeR]AFTF[NMeA]-NH2), the phosphorylation rate in data set [3] is 1.4 ± 0.2 zmol pg^–1 s^–1; in [4], 4.1 ± 0.9 zmol pg^–1 s^–1; in [6] it was 0.02–0.1 zmol pg^–1 s^–1; in data set [7] it was 0.04 zmol pg^–1 s^–1. Moreover, the half-life came out at 22 ± 4 min in data set [1] (cells or culture medium) and 184 ± 65 min in [2] (cells or culture medium, freeze–thaw lysate of vegetative D. discoideum cells, 3 mg/mL total protein in PBS, no protease inhibitors, first-order fit, ± SD, 3 biological replicates). Further, the “initial degradation rate in lysates” value in [5] stood at 5.1 ± 0.3 pmol mg^–1 s^–1. The “initial rate of fragmentation in lysates” value in [2] (D. discoideum freeze–thaw lysate, based on the first 15 min of each reaction, pmol peptide per mg total protein per second, 3 mg/mL protein) is given as 0.3 ± 0.1 pmol mg^–1 s^–1.

As for `C[C@H](NC(=O)[C@H](Cc1ccccc1)NC(=O)[C@H](CO)NC(=O)[C@H](CO)NC(=O)[C@@H](NC(=O)[C@H](CCCNC(=N)N)NC(=O)[C@@H]1CCCN1C(=O)[C@H](CCCNC(=N)N)NC(=O)CNC(=O)c1ccc2c(c1)C(=O)OC21c2ccc(O)cc2Oc2cc(O)ccc21)[C@@H](C)O)C(=O)N[C@@H](CCC(=O)O)C(=O)NCC(=O)O` [Crosstide] (5FAM-GRPRTSSFAEG-OH), the half-life at 10 μM stood at 8 ± 1 min in data set [1] and 117 ± 10 min in data set [2] (setting [11]).

For `Nc1nc2c(ncn2[C@@H]2O[C@@H]3COP(=O)(O)O[C@H]3[C@H]2O)c(=O)[nH]1` [cGMP], in data set [8], the “change in phosphorylation activity toward Crosstide after stimulus” value (“change” for short) is listed as “None of these stimuli resulted in increased phosphorylation activity”.

Consider concavalin A, for which the “change” value in data set [8] was “None of these stimuli resulted in increased phosphorylation activity”.

For the molecule insulin, the “change” value in data set [8] is listed as “None of these stimuli resulted in increased phosphorylation activity”.

As for `NCCc1c[nH]c2ccc(O)cc12` [serotonin], the “change” value in data set [8] was “None of these stimuli resulted in increased phosphorylation activity”.

What is called EC50 is the concentration needed to bring the measured effect to its halfway point. On to `O=c1cc(N2CCOCC2)oc2c(-c3ccccc3)cccc12` [LY294002], for which the “percent phosphorylation of cAMP-stimulated cells, as % of the untreated phosphorylation levels” value in [9] is reported as 33–34%. Moreover, the EC50 in data set [10] was 15 µM.

For `NCCc1c[nH]cn1` [histamine], the “change” value in data set [8] is “None of these stimuli resulted in increased phosphorylation activity”.
